Reference: patent US10405547B2, “Substituted cyclic amides as herbicides” (FMC Corporation, priority 2015, dated 2019)

Experiments:
Format in all cases: in vivo
Details in all cases: 0 to 100 scale (0 no effect, 100 complete control)
[1] = test system: wheat (Triticum aestivum); experiment: Test A postemergence, wheat
Source text: (§1) Test A Seeds of plant species selected from barnyardgrass (Echinochloa crus-galli), kochia (Kochia scoparia), ragweed (common ragweed, Ambrosia elatior), ryegrass, Italian (Lolium multiflorum), foxtail, giant (Setaria faberii), and pigweed (Amaranthus retroflexus), were planted into a blend of loam soil and sand and treated preemergence with a directed soil spray using test chemicals formulated in a non-phytotoxic solvent mixture which included a surfactant.
(§2) At the same time, plants selected from these weed species and also blackgrass (Alopecurus myosuroides), galium (catchweed bedstraw, Galium aparine), wheat (Triticum aestivum), and corn (Zea mays) were planted in pots containing the same blend of loam soil and sand and treated with postemergence applications of test chemicals formulated in the same manner. Plants ranged in height from 2 to 10 cm and were in the one- to two-leaf stage for the postemergence treatment. Treated plants and untreated controls were maintained in a greenhouse for approximately 10 days, after which time all treated plants were compared to untreated controls and visually evaluated for injury. Plant response ratings, summarized in Table A, are based on a 0 to 100 scale where 0 is no effect and 100 is complete control. A dash (-) response means no test result.

[2] = test system: ragweed (common ragweed, Ambrosia elatior); experiment: Test A postemergence, ragweed
Source text: as §1, §2

[3] = test system: foxtail, giant (Setaria faberii); experiment: Test A postemergence, giant foxtail
Source text: as §1, §2

[4] = test system: foxtail, giant (Setaria faberii); experiment: Test A preemergence, giant foxtail
Source text: as §1, §2

[5] = test system: ryegrass, Italian (Lolium multiflorum); experiment: Test A preemergence, Italian ryegrass
Source text: as §1, §2

[6] = test system: corn (Zea mays); experiment: Test A postemergence, corn
Source text: as §1, §2

[7] = test system: pigweed (Amaranthus retroflexus); experiment: Test A postemergence, pigweed
Source text: as §1, §2

[8] = test system: barnyardgrass (Echinochloa crus-galli); experiment: Test A postemergence, barnyardgrass
Source text: as §1, §2

[9] = test system: kochia (Kochia scoparia); experiment: Test A preemergence, kochia
Source text: as §1, §2

[10] = test system: kochia (Kochia scoparia); experiment: Test A postemergence, kochia
Source text: as §1, §2

[11] = test system: ryegrass, Italian (Lolium multiflorum); experiment: Test A postemergence, Italian ryegrass
Source text: as §1, §2

[12] = test system: pigweed (Amaranthus retroflexus); experiment: Test A preemergence, pigweed
Source text: as §1, §2

[13] = test system: blackgrass (Alopecurus myosuroides); experiment: Test A postemergence, blackgrass
Source text: as §1, §2

[14] = test system: ragweed (common ragweed, Ambrosia elatior); experiment: Test A preemergence, ragweed
Source text: as §1, §2

[15] = test system: galium (catchweed bedstraw, Galium aparine); experiment: Test A postemergence, galium
Source text: as §1, §2

[16] = test system: barnyardgrass (Echinochloa crus-galli); experiment: Test A preemergence, barnyardgrass
Source text: as §1, §2

[17] = 125 g ai/ha, visual injury, approximately 10 days
[18] = 500 g ai/ha, visual injury, approximately 10 days

| SMILES | Plant response rating, Wheat ([1]; 31 g ai/ha) | Plant response rating, Wheat [1, 17] | Plant response rating, Ragweed ([2]; 31 g ai/ha) | Plant response rating, Ragweed [2, 17] | Plant response rating, Foxtail, Giant ([3]; 31 g ai/ha) | Plant response rating, Foxtail, Giant [3, 17] | Plant response rating, Foxtail, Giant ([4]; 31 g ai/ha) | Plant response rating, Foxtail, Giant ([4]; 125 g ai/ha) | Plant response rating, Ryegrass, Italian ([5]; 125 g ai/ha) | Plant response rating, Corn [6, 17] | Plant response rating, Pigweed [7, 17] | Plant response rating, Barnyardgrass [8, 17] | Plant response rating, Kochia ([9]; 125 g ai/ha) | Plant response rating, Kochia [10, 17] | Plant response rating, Ryegrass, Italian [11, 17] | Plant response rating, Pigweed ([12]; 125 g ai/ha) | Plant response rating, Blackgrass [13, 17] | Plant response rating, Ragweed ([14]; 125 g ai/ha) | Plant response rating, Galium [15, 17] | Plant response rating, Barnyardgrass ([16]; 125 g ai/ha) | other results |
| --- | --- | --- | --- | --- | --- | --- | --- | --- | --- | --- | --- | --- | --- | --- | --- | --- | --- | --- | --- | --- | --- |
| O=C1NCC(c2cccc(Oc3ncc(F)cc3F)c2)C1C(=O)Nc1cccc(F)c1F (single isomer, unassigned) [Compound 71] | 0 | 0 | 0 | 30 | 20 | 70 | 70 | 90 | 0 | 20 | 50 | 70 | 30 | 20 | 0 | 80 | 0 | 0 | 50 | 70 | Plant response rating, Ryegrass, Italian ([5]; 31 g ai/ha): 0; Plant response rating, Corn ([6]; 31 g ai/ha): 0; Plant response rating, Pigweed ([7]; 31 g ai/ha): 0; Plant response rating, Barnyardgrass ([8]; 31 g ai/ha): 30; Plant response rating, Kochia ([9]; 31 g ai/ha): 0; Plant response rating, Kochia ([10]; 31 g ai/ha): 0; Plant response rating, Ryegrass, Italian ([11]; 31 g ai/ha): 0; Plant response rating, Pigweed ([12]; 31 g ai/ha): 20; Plant response rating, Blackgrass ([13]; 31 g ai/ha): 0; Plant response rating, Ragweed ([14]; 31 g ai/ha): 0; Plant response rating, Galium ([15]; 31 g ai/ha): 30; Plant response rating, Barnyardgrass ([16]; 31 g ai/ha): 0 |
| CN1CC(c2cccc(Oc3ncc(F)cc3F)c2)C(C(=O)Nc2ccccc2F)C1=O (single isomer, unassigned) [Compound 72] | 0 | 20 | 0 | 30 | 80 | 90 | 90 | 90 | 50 | 20 | 30 | 90 | 0 | 20 | 50 | 0 | 60 | 0 | 60 | 90 | Plant response rating, Ryegrass, Italian ([5]; 31 g ai/ha): 0; Plant response rating, Corn ([6]; 31 g ai/ha): 0; Plant response rating, Pigweed ([7]; 31 g ai/ha): 0; Plant response rating, Barnyardgrass ([8]; 31 g ai/ha): 60; Plant response rating, Kochia ([9]; 31 g ai/ha): 0; Plant response rating, Kochia ([10]; 31 g ai/ha): 0; Plant response rating, Ryegrass, Italian ([11]; 31 g ai/ha): 20; Plant response rating, Pigweed ([12]; 31 g ai/ha): 0; Plant response rating, Blackgrass ([13]; 31 g ai/ha): 20; Plant response rating, Ragweed ([14]; 31 g ai/ha): 0; Plant response rating, Galium ([15]; 31 g ai/ha): 40; Plant response rating, Barnyardgrass ([16]; 31 g ai/ha): 90 |
| CN1CC(c2cccc(Oc3ncc(F)cc3F)c2)C(C(=O)Nc2cccc(F)c2F)C1=O (single isomer, unassigned) [Compound 73] | 20 | 20 | 0 | 30 | 60 | 90 | 80 | 90 | 40 | 20 | 60 | 70 | 20 | 20 | 40 | 0 | 40 | 0 | 60 | 90 | Plant response rating, Ryegrass, Italian ([5]; 31 g ai/ha): 0; Plant response rating, Corn ([6]; 31 g ai/ha): 20; Plant response rating, Pigweed ([7]; 31 g ai/ha): 50; Plant response rating, Barnyardgrass ([8]; 31 g ai/ha): 60; Plant response rating, Kochia ([9]; 31 g ai/ha): 0; Plant response rating, Kochia ([10]; 31 g ai/ha): 0; Plant response rating, Ryegrass, Italian ([11]; 31 g ai/ha): 0; Plant response rating, Pigweed ([12]; 31 g ai/ha): 0; Plant response rating, Blackgrass ([13]; 31 g ai/ha): 0; Plant response rating, Ragweed ([14]; 31 g ai/ha): 0; Plant response rating, Galium ([15]; 31 g ai/ha): 50; Plant response rating, Barnyardgrass ([16]; 31 g ai/ha): 50 |
| CN1CC(c2cccc(Oc3ncc(F)cc3F)c2)C(C(=O)Nc2ccc(F)c(F)c2F)C1=O (single isomer, unassigned) [Compound 74] | 0 | 20 | 0 | 20 | 70 | 80 | 90 | 100 | 80 | 20 | 60 | 90 | 40 | 50 | 30 | 80 | 20 | 0 | 70 | 90 | Plant response rating, Ryegrass, Italian ([5]; 31 g ai/ha): 30; Plant response rating, Corn ([6]; 31 g ai/ha): 0; Plant response rating, Pigweed ([7]; 31 g ai/ha): 0; Plant response rating, Barnyardgrass ([8]; 31 g ai/ha): 60; Plant response rating, Kochia ([9]; 31 g ai/ha): 0; Plant response rating, Kochia ([10]; 31 g ai/ha): 20; Plant response rating, Ryegrass, Italian ([11]; 31 g ai/ha): 0; Plant response rating, Pigweed ([12]; 31 g ai/ha): 0; Plant response rating, Blackgrass ([13]; 31 g ai/ha): 0; Plant response rating, Ragweed ([14]; 31 g ai/ha): 0; Plant response rating, Galium ([15]; 31 g ai/ha): 40; Plant response rating, Barnyardgrass ([16]; 31 g ai/ha): 70 |
| O=C1NCC(c2cccc(OCC3CC3)c2)C1C(=O)Nc1ccc(F)cc1F (stereo not drawn) [Compound 3] |  | 0 |  | 0 |  | 20 |  | 60 | 0 | 0 | 0 | 10 | 0 | 0 | 0 | 0 | 0 | 0 | 20 | 40 | Plant response rating, Wheat [1, 18]: 20; Plant response rating, Ragweed [2, 18]: 0; Plant response rating, Foxtail, Giant [3, 18]: 70; Plant response rating, Foxtail, Giant ([4]; 500 g ai/ha): 80; Plant response rating, Ryegrass, Italian ([5]; 500 g ai/ha): 20; Plant response rating, Corn [6, 18]: 20; Plant response rating, Pigweed [7, 18]: 0; Plant response rating, Barnyardgrass [8, 18]: 60; Plant response rating, Kochia ([9]; 500 g ai/ha): 20; Plant response rating, Kochia [10, 18]: 40; Plant response rating, Ryegrass, Italian [11, 18]: 30; Plant response rating, Pigweed ([12]; 500 g ai/ha): 0; Plant response rating, Blackgrass [13, 18]: 30; Plant response rating, Ragweed ([14]; 500 g ai/ha): 0; Plant response rating, Galium [15, 18]: 40; Plant response rating, Barnyardgrass ([16]; 500 g ai/ha): 70 |
| CC1(COc2cccc(C3CNC(=O)C3C(=O)Nc3cccc(F)c3F)c2)COC1 (stereo not drawn) [Compound 13] |  | 0 |  | 0 |  | 40 |  | 80 | 0 | 0 | 0 | 0 | 0 | 0 | 0 | 0 | 0 | 0 | 0 | 0 | Plant response rating, Wheat [1, 18]: 0; Plant response rating, Ragweed [2, 18]: 0; Plant response rating, Foxtail, Giant [3, 18]: 70; Plant response rating, Foxtail, Giant ([4]; 500 g ai/ha): 90; Plant response rating, Ryegrass, Italian ([5]; 500 g ai/ha): 0; Plant response rating, Corn [6, 18]: 0; Plant response rating, Pigweed [7, 18]: 0; Plant response rating, Barnyardgrass [8, 18]: 60; Plant response rating, Kochia ([9]; 500 g ai/ha): 0; Plant response rating, Kochia [10, 18]: 20; Plant response rating, Ryegrass, Italian [11, 18]: 30; Plant response rating, Pigweed ([12]; 500 g ai/ha): 0; Plant response rating, Blackgrass [13, 18]: 20; Plant response rating, Ragweed ([14]; 500 g ai/ha): 0; Plant response rating, Galium [15, 18]: 40; Plant response rating, Barnyardgrass ([16]; 500 g ai/ha): 80 |
